Assay results from paper PMC8371461 (Frontiers in Pharmacology, 2021).

Key:
[1] = molecular target: T1, DRAK1 (Homo sapiens, UniProt Q9UEE5); assay: kinome scan; type: binding; conditions: 10 µM
T1 construct: purchased DiscoverX (KINOMEscan)

[2] = molecular target: T2, FES (Homo sapiens, UniProt P07332); assay: kinome scan; type: binding; conditions: 10 µM
T2 construct: purchased DiscoverX (KINOMEscan)

[3] = molecular target: T3, TLK2 (Homo sapiens, UniProt Q86UE8); assay: kinome scan; type: binding; conditions: 10 µM
T3 construct: purchased DiscoverX (KINOMEscan)

[4] = molecular target: T4, CIT (Homo sapiens, UniProt O14578); assay: kinome scan; type: binding; conditions: 10 µM
T4 construct: purchased DiscoverX (KINOMEscan)

[5] = molecular target: T5, CAMK2A (Homo sapiens, UniProt Q9UQM7); assay: kinome scan; type: binding; conditions: 10 µM
T5 construct: purchased DiscoverX (KINOMEscan)

[6] = test system: Rat pregnane X receptor (rPXR) signaling pathway; parameters: method as in CHEMBL2114797; conditions: reported activity, data mining; ref CHEMBL2114797; cited from earlier work
[7] = molecular target: T6, IGF1R (Homo sapiens, UniProt P08069); assay: kinome scan; type: binding; conditions: 10 µM
T6 construct: purchased DiscoverX (KINOMEscan)

[8] = molecular target: T7, RIPK5 (Homo sapiens, UniProt Q6XUX3); assay: kinome scan; type: binding; conditions: 10 µM
T7 construct: purchased DiscoverX (KINOMEscan)

[9] = molecular target: T8, GRK7 (Homo sapiens, UniProt Q8WTQ7); assay: kinome scan; type: binding; conditions: 10 µM
T8 construct: purchased DiscoverX (KINOMEscan)

[10] = molecular target: T9, JAK3(JH1domain-catalytic) (Homo sapiens, UniProt P52333); assay: kinome scan; type: binding; conditions: 10 µM
T9 construct: JAK3(JH1domain-catalytic); purchased DiscoverX (KINOMEscan)

[11] = molecular target: T10, EPHA5 (Homo sapiens, UniProt P54756); assay: kinome scan; type: binding; conditions: 10 µM
T10 construct: purchased DiscoverX (KINOMEscan)

[12] = molecular target: T11, NEK6 (Homo sapiens, UniProt Q9HC98); assay: kinome scan; type: binding; conditions: 10 µM
T11 construct: purchased DiscoverX (KINOMEscan)

[13] = molecular target: T12, PLK3 (Homo sapiens, UniProt Q9H4B4); assay: kinome scan; type: binding; conditions: 10 µM
T12 construct: purchased DiscoverX (KINOMEscan)

[14] = molecular target: T13, PCTK1 (Homo sapiens, UniProt Q00536); assay: kinome scan; type: binding; conditions: 10 µM
T13 construct: purchased DiscoverX (KINOMEscan)

[15] = molecular target: T14, RPS6KA5(Kin.Dom.1-N-terminal) (Homo sapiens, UniProt O75582); assay: kinome scan; type: binding; conditions: 10 µM
T14 construct: RPS6KA5(Kin.Dom.1-N-terminal); purchased DiscoverX (KINOMEscan)

[16] = molecular target: T15, CDC2L1 (Homo sapiens, UniProt P21127); assay: kinome scan; type: binding; conditions: 10 µM
T15 construct: purchased DiscoverX (KINOMEscan)

[17] = molecular target: T16, ITK (Homo sapiens, UniProt Q08881); assay: kinome scan; type: binding; conditions: 10 µM
T16 construct: purchased DiscoverX (KINOMEscan)

[18] = molecular target: T17, TNNI3K (Homo sapiens, UniProt Q59H18); assay: kinome scan; type: binding; conditions: 10 µM
T17 construct: purchased DiscoverX (KINOMEscan)

[19] = molecular target: T18, p38-gamma (Homo sapiens, UniProt P53778); assay: kinome scan; type: binding; conditions: 10 µM
T18 construct: purchased DiscoverX (KINOMEscan)

[20] = molecular target: T19, BRSK2 (Homo sapiens, UniProt Q8IWQ3); assay: kinome scan; type: binding; conditions: 10 µM
T19 construct: purchased DiscoverX (KINOMEscan)

[21] = molecular target: T20, CDKL3 (Homo sapiens, UniProt Q8IVW4); assay: kinome scan; type: binding; conditions: 10 µM
T20 construct: purchased DiscoverX (KINOMEscan)

[22] = molecular target: T21, AMPK-alpha2 (Homo sapiens, UniProt P54646); assay: kinome scan; type: binding; conditions: 10 µM
T21 construct: purchased DiscoverX (KINOMEscan)

[23] = molecular target: T22, PIP5K2B (Homo sapiens, UniProt P78356); assay: kinome scan; type: binding; conditions: 10 µM
T22 construct: purchased DiscoverX (KINOMEscan)

[24] = molecular target: T23, ACVR1B (Homo sapiens, UniProt P36896); assay: kinome scan; type: binding; conditions: 10 µM
T23 construct: purchased DiscoverX (KINOMEscan)

[25] = molecular target: T24, ABL1(Q252H)-nonphosphorylated (Homo sapiens, UniProt P00519, Q252H); assay: kinome scan; type: binding; conditions: 10 µM
T24 construct: purchased DiscoverX (KINOMEscan)

[26] = molecular target: T25, RPS6KA5(Kin.Dom.2-C-terminal) (Homo sapiens, UniProt O75582); assay: kinome scan; type: binding; conditions: 10 µM
T25 construct: RPS6KA5(Kin.Dom.2-C-terminal); purchased DiscoverX (KINOMEscan)

[27] = molecular target: T26, MET(M1250T) (Homo sapiens, UniProt P08581, M1250T); assay: kinome scan; type: binding; conditions: 10 µM
T26 construct: purchased DiscoverX (KINOMEscan)

[28] = molecular target: FLT3(ITD); assay: kinome scan; type: binding, human; conditions: 10 µM
[29] = molecular target: T27, SYK (Homo sapiens, UniProt P43405); assay: kinome scan; type: binding; conditions: 10 µM
T27 construct: purchased DiscoverX (KINOMEscan)

[30] = molecular target: T28, NEK7 (Homo sapiens, UniProt Q8TDX7); assay: kinome scan; type: binding; conditions: 10 µM
T28 construct: purchased DiscoverX (KINOMEscan)

[31] = molecular target: T29, TRKA (Homo sapiens, UniProt P04629); assay: kinome scan; type: binding; conditions: 10 µM
T29 construct: purchased DiscoverX (KINOMEscan)

[32] = molecular target: T30, CDK7 (Homo sapiens, UniProt P50613); assay: kinome scan; type: binding; conditions: 10 µM
T30 construct: purchased DiscoverX (KINOMEscan)

[33] = molecular target: T31, PRKCQ (Homo sapiens, UniProt Q04759); assay: kinome scan; type: binding; conditions: 10 µM
T31 construct: purchased DiscoverX (KINOMEscan)

[34] = molecular target: T32, RAF1 (Homo sapiens, UniProt P04049); assay: kinome scan; type: binding; conditions: 10 µM
T32 construct: purchased DiscoverX (KINOMEscan)

[35] = molecular target: T33, ULK1 (Homo sapiens, UniProt O75385); assay: kinome scan; type: binding; conditions: 10 µM
T33 construct: purchased DiscoverX (KINOMEscan)

[36] = molecular target: T34, MRCKB (Homo sapiens, UniProt Q9Y5S2); assay: kinome scan; type: binding; conditions: 10 µM
T34 construct: purchased DiscoverX (KINOMEscan)

[37] = molecular target: T35, MAP3K4 (Homo sapiens, UniProt Q9Y6R4); assay: kinome scan; type: binding; conditions: 10 µM
T35 construct: purchased DiscoverX (KINOMEscan)

[38] = molecular target: T36, VEGFR2 (Homo sapiens, UniProt P35968); assay: kinome scan; type: binding; conditions: 10 µM
T36 construct: purchased DiscoverX (KINOMEscan)

[39] = molecular target: T37, ULK2 (Homo sapiens, UniProt Q8IYT8); assay: kinome scan; type: binding; conditions: 10 µM
T37 construct: purchased DiscoverX (KINOMEscan)

[40] = molecular target: T38, PRKG2 (Homo sapiens, UniProt Q13237); assay: kinome scan; type: binding; conditions: 10 µM
T38 construct: purchased DiscoverX (KINOMEscan)

T18 sequence (P53778 whole entry): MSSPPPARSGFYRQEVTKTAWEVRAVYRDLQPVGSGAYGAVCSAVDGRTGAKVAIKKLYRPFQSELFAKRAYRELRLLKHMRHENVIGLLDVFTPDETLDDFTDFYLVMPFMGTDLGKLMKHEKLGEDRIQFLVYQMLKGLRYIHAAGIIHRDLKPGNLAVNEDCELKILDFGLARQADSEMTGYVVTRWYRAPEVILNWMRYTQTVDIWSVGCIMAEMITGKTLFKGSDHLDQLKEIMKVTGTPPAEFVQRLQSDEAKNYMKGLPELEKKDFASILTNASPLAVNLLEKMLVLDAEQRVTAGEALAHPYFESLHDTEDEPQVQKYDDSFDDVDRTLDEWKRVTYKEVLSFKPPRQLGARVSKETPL
T21 sequence (P54646 whole entry): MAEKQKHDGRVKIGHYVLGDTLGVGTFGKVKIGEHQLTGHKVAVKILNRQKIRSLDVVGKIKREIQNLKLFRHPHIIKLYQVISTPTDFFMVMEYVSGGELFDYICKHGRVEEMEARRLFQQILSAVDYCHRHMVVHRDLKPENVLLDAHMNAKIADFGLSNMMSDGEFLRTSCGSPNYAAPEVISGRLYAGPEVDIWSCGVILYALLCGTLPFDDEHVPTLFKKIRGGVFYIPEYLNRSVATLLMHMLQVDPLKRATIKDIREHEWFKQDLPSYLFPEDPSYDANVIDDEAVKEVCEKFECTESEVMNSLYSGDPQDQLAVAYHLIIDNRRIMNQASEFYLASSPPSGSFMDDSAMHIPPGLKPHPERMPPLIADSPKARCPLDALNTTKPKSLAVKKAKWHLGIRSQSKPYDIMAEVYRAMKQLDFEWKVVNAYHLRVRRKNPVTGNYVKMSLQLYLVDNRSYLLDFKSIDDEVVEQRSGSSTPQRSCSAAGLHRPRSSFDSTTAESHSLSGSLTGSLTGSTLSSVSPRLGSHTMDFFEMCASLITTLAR
T7 sequence (Q6XUX3 whole entry): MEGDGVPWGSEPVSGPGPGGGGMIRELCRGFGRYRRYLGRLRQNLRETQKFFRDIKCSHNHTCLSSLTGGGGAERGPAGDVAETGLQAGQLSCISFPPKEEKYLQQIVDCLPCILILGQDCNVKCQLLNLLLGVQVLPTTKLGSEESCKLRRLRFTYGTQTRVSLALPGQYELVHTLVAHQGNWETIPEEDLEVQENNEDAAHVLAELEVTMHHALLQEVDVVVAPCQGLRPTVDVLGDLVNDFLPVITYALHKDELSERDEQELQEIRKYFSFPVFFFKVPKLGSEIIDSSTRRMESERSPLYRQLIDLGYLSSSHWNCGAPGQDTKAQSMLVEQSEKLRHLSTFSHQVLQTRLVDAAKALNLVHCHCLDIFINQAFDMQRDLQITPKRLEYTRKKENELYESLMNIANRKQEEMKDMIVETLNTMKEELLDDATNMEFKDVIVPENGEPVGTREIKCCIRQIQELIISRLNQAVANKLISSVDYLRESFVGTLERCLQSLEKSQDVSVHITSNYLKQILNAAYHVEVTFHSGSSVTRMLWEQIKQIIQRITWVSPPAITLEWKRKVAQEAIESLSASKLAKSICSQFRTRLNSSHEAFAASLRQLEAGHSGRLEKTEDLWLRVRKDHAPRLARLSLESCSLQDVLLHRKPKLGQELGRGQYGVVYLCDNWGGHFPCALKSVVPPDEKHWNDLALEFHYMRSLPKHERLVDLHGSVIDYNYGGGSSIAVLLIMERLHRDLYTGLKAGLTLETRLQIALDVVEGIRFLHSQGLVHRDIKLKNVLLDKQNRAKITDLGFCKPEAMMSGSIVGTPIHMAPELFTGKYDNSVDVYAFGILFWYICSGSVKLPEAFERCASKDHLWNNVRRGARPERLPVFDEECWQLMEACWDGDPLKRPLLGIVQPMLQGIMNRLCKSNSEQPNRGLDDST
T26 sequence (P08581 25-1390 M1250T): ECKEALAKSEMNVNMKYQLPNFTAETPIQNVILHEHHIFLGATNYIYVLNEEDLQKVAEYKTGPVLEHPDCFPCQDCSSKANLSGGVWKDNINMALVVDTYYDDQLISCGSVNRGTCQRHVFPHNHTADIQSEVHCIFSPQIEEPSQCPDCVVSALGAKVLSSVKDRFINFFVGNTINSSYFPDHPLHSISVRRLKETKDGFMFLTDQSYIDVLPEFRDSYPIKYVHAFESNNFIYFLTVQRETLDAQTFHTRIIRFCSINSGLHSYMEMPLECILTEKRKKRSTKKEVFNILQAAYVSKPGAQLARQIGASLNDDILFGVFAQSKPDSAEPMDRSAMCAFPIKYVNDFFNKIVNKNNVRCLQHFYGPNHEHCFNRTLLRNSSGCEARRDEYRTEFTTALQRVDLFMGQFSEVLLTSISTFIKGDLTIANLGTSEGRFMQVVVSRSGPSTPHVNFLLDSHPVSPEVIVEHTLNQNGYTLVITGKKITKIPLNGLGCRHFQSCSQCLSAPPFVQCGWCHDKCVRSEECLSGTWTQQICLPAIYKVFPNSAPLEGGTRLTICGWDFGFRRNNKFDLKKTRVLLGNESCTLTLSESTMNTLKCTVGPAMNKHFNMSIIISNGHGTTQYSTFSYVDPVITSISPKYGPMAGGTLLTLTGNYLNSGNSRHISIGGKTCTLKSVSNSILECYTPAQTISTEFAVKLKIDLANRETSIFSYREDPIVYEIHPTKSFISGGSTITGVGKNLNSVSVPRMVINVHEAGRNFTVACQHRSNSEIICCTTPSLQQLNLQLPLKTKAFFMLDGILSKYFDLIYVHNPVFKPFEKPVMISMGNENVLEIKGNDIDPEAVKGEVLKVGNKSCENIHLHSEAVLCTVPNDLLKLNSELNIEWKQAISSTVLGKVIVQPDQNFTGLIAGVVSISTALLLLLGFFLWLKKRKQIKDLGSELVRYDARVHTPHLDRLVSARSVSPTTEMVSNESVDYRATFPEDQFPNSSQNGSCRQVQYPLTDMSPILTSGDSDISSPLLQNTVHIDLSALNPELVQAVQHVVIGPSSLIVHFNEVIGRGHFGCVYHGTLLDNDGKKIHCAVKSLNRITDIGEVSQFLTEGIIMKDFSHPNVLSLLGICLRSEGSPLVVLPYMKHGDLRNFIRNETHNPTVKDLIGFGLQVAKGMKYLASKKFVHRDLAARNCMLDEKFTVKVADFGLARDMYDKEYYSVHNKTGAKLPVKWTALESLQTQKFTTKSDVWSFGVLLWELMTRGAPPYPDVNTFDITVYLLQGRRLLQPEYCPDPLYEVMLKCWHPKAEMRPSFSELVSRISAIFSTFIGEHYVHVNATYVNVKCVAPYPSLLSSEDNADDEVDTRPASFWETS
T17 sequence (Q59H18 whole entry): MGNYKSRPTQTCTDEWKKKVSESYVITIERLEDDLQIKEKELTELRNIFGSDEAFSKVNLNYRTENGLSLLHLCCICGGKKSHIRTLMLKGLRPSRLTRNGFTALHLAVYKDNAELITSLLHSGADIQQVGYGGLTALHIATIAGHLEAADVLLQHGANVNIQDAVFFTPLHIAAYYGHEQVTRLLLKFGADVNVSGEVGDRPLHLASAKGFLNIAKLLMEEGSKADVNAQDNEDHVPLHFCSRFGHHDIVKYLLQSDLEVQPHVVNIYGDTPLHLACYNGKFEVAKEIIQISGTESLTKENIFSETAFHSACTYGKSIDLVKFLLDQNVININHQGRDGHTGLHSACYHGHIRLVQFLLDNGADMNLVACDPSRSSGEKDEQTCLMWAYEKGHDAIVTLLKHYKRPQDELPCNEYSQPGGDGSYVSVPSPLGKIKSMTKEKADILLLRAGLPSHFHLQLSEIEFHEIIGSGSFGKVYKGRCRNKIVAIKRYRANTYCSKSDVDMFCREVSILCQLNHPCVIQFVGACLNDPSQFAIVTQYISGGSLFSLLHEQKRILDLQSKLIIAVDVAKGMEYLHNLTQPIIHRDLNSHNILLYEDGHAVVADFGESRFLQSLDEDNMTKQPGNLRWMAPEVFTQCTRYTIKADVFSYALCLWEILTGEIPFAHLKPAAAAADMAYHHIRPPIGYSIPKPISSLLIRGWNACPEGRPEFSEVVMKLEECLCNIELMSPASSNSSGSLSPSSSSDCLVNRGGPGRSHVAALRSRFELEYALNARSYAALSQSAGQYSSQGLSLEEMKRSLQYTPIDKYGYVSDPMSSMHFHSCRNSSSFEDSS
T19 sequence (Q8IWQ3 whole entry): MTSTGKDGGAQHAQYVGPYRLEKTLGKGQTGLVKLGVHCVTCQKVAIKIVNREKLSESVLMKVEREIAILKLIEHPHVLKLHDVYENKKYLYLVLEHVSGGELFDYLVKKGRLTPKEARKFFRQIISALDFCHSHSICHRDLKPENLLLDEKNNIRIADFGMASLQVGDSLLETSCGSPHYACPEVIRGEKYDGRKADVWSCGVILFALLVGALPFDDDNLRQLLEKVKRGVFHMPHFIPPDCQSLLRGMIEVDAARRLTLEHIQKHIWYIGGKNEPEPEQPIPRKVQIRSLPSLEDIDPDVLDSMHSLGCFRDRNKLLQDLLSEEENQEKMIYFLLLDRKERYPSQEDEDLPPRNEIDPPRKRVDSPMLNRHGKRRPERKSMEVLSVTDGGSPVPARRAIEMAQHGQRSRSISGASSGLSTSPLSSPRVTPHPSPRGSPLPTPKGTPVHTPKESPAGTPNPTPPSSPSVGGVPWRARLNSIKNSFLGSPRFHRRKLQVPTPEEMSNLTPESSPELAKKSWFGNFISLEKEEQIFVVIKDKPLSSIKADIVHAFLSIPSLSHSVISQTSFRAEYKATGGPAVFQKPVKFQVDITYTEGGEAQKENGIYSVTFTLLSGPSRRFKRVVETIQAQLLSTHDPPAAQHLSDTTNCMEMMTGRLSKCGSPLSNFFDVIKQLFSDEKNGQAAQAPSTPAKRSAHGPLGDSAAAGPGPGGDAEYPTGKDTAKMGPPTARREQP
T25 sequence (O75582 426-687 limits assumed): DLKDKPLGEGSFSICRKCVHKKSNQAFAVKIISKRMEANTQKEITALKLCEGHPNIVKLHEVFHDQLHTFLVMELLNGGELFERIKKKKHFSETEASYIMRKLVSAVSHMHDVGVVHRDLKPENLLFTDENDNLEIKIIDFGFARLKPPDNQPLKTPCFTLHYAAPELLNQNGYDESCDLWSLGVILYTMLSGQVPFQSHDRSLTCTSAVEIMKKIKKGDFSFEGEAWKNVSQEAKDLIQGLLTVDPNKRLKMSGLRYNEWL

Compound `Nc1ccc(N=Nc2ccccc2)c(N)n1` [phenazopyridine, 2,6-diamino-3-(phenylazo)pyridine] has a kinase inhibition [1] of 45, a kinase inhibition [2] of 100 and a kinase inhibition [3] of 100. For the same compound, the kinase inhibition [4] was 72, the kinase inhibition [5] was 97 and the Concentration [6] was 7 µM. For the same compound, the kinase inhibition [7] was 100, the kinase inhibition [8] was 68 and the kinase inhibition [9] was 100. It also gave a kinase inhibition [10] of 100, a kinase inhibition [11] of 97 and a kinase inhibition [12] of 100. The “remaining binding (% of control)” value [13] was 98, the kinase inhibition [14] was 98 and the kinase inhibition [15] was 100. For the same compound, the kinase inhibition [16] was 90, the kinase inhibition [17] was 97 and the kinase inhibition [18] was 100. For the same compound, the kinase inhibition [19] was 100, the kinase inhibition [20] was 90 and the kinase inhibition [21] was 74. The kinase inhibition [22] was 84, the kinase inhibition [23] was 97 and the kinase inhibition [24] was 86. It also gave a kinase inhibition [25] of 90, a kinase inhibition [26] of 100 and a kinase inhibition [27] of 83. For the same compound, the “remaining binding (% of control)” value [28] was 55, the kinase inhibition [29] was 100 and the kinase inhibition [30] was 100. For the same compound, the kinase inhibition [31] was 100, the kinase inhibition [32] was 50 and the kinase inhibition [33] was 81. For the same compound, the kinase inhibition [34] was 100, the kinase inhibition [35] was 100 and the kinase inhibition [36] was 100. It also gave a kinase inhibition [37] of 100, a kinase inhibition [38] of 97 and a kinase inhibition [39] of 96. It also gave a kinase inhibition [40] of 81.
